In patent publication US10919891B2, “Heterocyclic compound” (TAKEDA PHARMACEUTICAL COMPANY LIMITED, priority 2017, dated 2021):

Key:
CSQ-Tg mice [1] = assay: Effect on survival rate of heart failure animal model; format: in vivo
Source text: In this Test Example, effect of the compound of Example 1 on survival rate was examined using heart failure animal models. The mice reported in Larry R. Jones et al., J. Clin. Invest. 101: 1385-1393, 1998 were obtained from the University of Pennsylvania and bred in-house, which were cardiac-specific transgenic mice of Calsequestrin (CSQ)(CSQ-Tg mice) as the heart failure animal models. In the study, female mice were used, and dosing was started from the age of 5 weeks. The animals were fed with chow (CE-2, CLEA Japan, Inc.) and tap water under the condition of room temperature of 20 to 26° C., humidity of 40 to 70%, and lighting time of 12 hours/day (7:00 to 19:00). As already reported, in the CSQ-Tg mice, Ca^2+ intracellular release was suppressed, myocardial contraction was reduced, cardiac output was decreased, and cardiac hypertrophy and heart failure were developed.
To 5-week old female CSQ-Tg mice, the compound of Example 1 was orally administered at a dose of 10 mg/kg bodyweight/day with a frequency of once daily (QD) for 47 days (n=24). While, to the control group, vehicle (0.5% methylcellulose aqueous solution) was administered (n=24).
To 5-week old female CSQ-Tg mice, the compound of Example 1 was orally administered at a dose of 10 mg/kg bodyweight/day in combination with candesartan cilexetil (1 mg/kg bodyweight/day) with a frequency of once daily (QD) for 68 days (n=18). […]

CSQ-Tg mice [2] = assay: Heart weight lowering effect in heart failure animal model; format: in vivo; details: for Heart weight (Mean ± standard deviation (mg)): female CSQ-Tg mice
Description: In this Test Example, the heart weight lowering effect of the compound of Example 1 was evaluated using CSQ-Tg mice as animal model for heart failure.
The compound of Example 1 was suspended in 0.5% methylcellulose aqueous solution (hereinafter, in Test Examples, sometimes referred to as “vehicle”) (10 mL/kg). The obtained suspension was orally administered to 5-week old female CSQ-Tg mice developing heart failure at a dose of 10 mg/kg bodyweight/day (n=7) or 30 mg/kg bodyweight/day (n=10) once daily (QD) for 21 days. For a negative control (vehicle administration group), 0.5% methylcellulose aqueous solution (n=7) was administered. Then, weights of the hearts were measured. The measurement of the weights was carried out by fractionating each of the hearts into four: left ventricle, right ventricle, left atrium, and right atrium. The sum of the weights of the four fractions was defined as the heart weight.

human CaSR = target: T1, human CaSR (Homo sapiens, UniProt P41180); assay: Human CaSR Antagonist Activity (CHO cells, NFAT-Luciferase reporter); format: cell-based; details: CHO, 2 h, 3.3 μm test compound; CaCl2 final 1.3 mM; 100% = reference carboxamide at 10 μM; read-out: Inhibition rate (%) at 3.3 μm
T1 construct: expressed in transfected cells; host or cells: CHO cells
T1 sequence (P41180 20-1078): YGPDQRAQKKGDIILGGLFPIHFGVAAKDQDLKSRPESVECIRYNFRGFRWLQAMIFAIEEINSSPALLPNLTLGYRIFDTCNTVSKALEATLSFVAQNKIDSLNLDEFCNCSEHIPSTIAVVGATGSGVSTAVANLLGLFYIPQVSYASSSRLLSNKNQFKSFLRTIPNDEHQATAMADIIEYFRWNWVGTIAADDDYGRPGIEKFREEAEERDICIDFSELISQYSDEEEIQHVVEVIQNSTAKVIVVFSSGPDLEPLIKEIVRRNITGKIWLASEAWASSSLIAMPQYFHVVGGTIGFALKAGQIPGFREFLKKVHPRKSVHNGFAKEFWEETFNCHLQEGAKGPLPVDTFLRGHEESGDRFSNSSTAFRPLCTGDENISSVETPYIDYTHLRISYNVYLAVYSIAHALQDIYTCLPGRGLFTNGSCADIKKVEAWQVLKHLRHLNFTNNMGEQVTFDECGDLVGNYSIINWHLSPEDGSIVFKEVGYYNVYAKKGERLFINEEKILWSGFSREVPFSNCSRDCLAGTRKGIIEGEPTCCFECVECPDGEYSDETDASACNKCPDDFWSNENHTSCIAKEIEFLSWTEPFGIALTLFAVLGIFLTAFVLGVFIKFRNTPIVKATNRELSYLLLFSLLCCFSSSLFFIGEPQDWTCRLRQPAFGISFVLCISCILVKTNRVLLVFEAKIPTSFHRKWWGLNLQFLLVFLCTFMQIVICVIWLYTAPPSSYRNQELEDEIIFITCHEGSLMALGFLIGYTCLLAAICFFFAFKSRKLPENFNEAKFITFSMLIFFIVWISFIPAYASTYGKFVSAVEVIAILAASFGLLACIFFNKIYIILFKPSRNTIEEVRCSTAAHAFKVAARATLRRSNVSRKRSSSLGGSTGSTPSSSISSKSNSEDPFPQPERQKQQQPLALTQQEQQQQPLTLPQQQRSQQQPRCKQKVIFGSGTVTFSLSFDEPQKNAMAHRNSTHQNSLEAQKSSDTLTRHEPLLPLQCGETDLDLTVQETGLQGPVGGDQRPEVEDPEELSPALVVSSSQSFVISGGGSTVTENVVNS
Description: CaSR antagonist activity measurement was performed using Bright-Glo Luciferase assay system (Promega Corporation). CHO cells in which human CaSR and NFAT-Luciferase reporter gene were forcibly expressed were suspended in MEM alpha (Wako Pure Chemical Industries, Ltd.) containing 10% dialyzed serum (HyClone). The cells in suspension was seeded in 384-well white plate (Corning) at 10,000/20 μL/well, and cultured in an incubator of 37° C., 5% CO2 for one day. A diluent of Test compound was prepared with assay buffer (MEM alpha containing 10 mM HEPES (Life Technologies) and 10% dialysis serum). The diluent was added to the plate at 5 μL/well and allowed to stand at 37° C. for 10 minutes. Further, a diluent of 7.8 mM CaCl2 prepared with assay buffer (final concentration 1.3 mM) was added at 5 μl/well and allowed to stand in an incubator of 37° C., 5% CO2 for 2 hours. Bright-Glo reagents (Promega Corporation) were added at 10 μL/well, and the obtained mixture was stirred for 5 minutes, and then luminescence intensity was measured using Multi-label reader Envision (PerkinElmer, Inc.). The activity (%) of the test compound was calculated with the definitions in which the luminescence intensity when DMSO is added in place of the test compound is defined as 0% inhibition; and the luminescence intensity when (5R)—N-(1-ethyl-1-(4-ethylphenyl)propyl)-2,7,7-trimethyl-5-phenyl-4,5,6,7-tetrahydropyrazolo[1,5-a]Pyrimidine-3-carboxamide at final concentration of 10 μM is added is defined as 100% inhibition.

[3] = 10 mg/kg bodyweight/day oral QD for 21 days
[4] = 30 mg/kg bodyweight/day oral QD for 21 days

Q: Which “Survival rates, log-rank test p” value (CSQ-Tg mice [1]; 10 mg/kg bodyweight/day co-administered with candesartan cilexetil (1 mg/kg bodyweight/day) QD 68 days vs candesartan cilexetil mono-administration (FIG. 2)) does the source give for `CC1(C)C[C@H](c2ccccc2)Nc2c(C(=O)N3C[C@@H]4C[C@]4(c4ccc(Cl)c(Cl)c4)C3)cnn21` [Example 1, ((1S,5R)-1-(3,4-Dichlorophenyl)-3-azabicyclo[3.1.0]hex-3-yl)((5R)-7,7-dimethyl-5-phenyl-4,5,6,7-tetrahydropyrazolo[1,5-a]pyrimidin-3-yl)methanone] here?
A: < 0.001

Q: And the “Survival rates, log-rank test p” value (CSQ-Tg mice [1]; 10 mg/kg bodyweight/day oral QD for 47 days vs vehicle administration group (FIG. 1))?
A: < 0.025

Q: And the “Left atrium weight (Mean ± standard deviation (mg))” value (CSQ-Tg mice [2]; [3])?
A: 10.7 ± 3.5 mg

Q: What about the “Left ventricle weight (Mean ± standard deviation (mg))” value (CSQ-Tg mice [2]; [3]) of the same compound?
A: 160.1 ± 11.9 mg

Q: And the “Right atrium weight (Mean ± standard deviation (mg))” value (CSQ-Tg mice [2]; [3])?
A: 6.2 ± 3.1 mg

Q: What about the “Right ventricle weight (Mean ± standard deviation (mg))” value (CSQ-Tg mice [2]; [3]) of the same compound?
A: 44.9 ± 5.1 mg

Q: What about the “Heart weight (Mean ± standard deviation (mg))” value (CSQ-Tg mice [2]; [3]) of the same compound?
A: 221.9 ± 18.2 mg

Q: And the “Left atrium weight (Mean ± standard deviation (mg))” value (CSQ-Tg mice [2]; [4])?
A: 9.6 ± 2.6 mg

Q: What about the “Left ventricle weight (Mean ± standard deviation (mg))” value (CSQ-Tg mice [2]; [4]) of the same compound?
A: 153.2 ± 12.7 mg

Q: And the “Right atrium weight (Mean ± standard deviation (mg))” value (CSQ-Tg mice [2]; [4])?
A: 5.8 ± 2.4 mg

Q: And the “Heart weight (Mean ± standard deviation (mg))” value (CSQ-Tg mice [2]; [4])?
A: 212.5 ± 21.9 mg

Q: And the “Right ventricle weight (Mean ± standard deviation (mg))” value (CSQ-Tg mice [2]; 30 mg/kg bodyweight/day oral QD for 21 days, ** Williams' multiple comparison test (p < 0.025))?
A: 43.9 ± 6.9** mg

Q: And the inhibition at 3.3 µM (human CaSR)?
A: 100%
